Results on 19 compounds are retold here after patent publication US20240425480A1, “NOVEL PYRIDINE DERIVATIVE COMPOUND AS RON INHIBITOR” (LG CHEM, LTD., priority 2021, published 2024).

As a reminder, the IC50 is the midpoint of a concentration-inhibition curve. A low value points to inhibition by little substance.

The structures appear in SMILES notation.

For one experiment, the target named is RON (Homo sapiens, UniProt Q04912). The experiment can be described thus: Inhibitory activity against RON, TR-FRET kinase assay. The experiment is classed as biochemical. The conditions noted are these: TR-FRET enzyme assay. As for the experimental part: In order to measure the inhibitory activity of each of the compounds of Examples against RON, the IC50 of each of the compounds was measured using Time-resolved fluorescence energy transfer (TR-FRET).
RON, sequence (Q04912 25-1400, species assumed): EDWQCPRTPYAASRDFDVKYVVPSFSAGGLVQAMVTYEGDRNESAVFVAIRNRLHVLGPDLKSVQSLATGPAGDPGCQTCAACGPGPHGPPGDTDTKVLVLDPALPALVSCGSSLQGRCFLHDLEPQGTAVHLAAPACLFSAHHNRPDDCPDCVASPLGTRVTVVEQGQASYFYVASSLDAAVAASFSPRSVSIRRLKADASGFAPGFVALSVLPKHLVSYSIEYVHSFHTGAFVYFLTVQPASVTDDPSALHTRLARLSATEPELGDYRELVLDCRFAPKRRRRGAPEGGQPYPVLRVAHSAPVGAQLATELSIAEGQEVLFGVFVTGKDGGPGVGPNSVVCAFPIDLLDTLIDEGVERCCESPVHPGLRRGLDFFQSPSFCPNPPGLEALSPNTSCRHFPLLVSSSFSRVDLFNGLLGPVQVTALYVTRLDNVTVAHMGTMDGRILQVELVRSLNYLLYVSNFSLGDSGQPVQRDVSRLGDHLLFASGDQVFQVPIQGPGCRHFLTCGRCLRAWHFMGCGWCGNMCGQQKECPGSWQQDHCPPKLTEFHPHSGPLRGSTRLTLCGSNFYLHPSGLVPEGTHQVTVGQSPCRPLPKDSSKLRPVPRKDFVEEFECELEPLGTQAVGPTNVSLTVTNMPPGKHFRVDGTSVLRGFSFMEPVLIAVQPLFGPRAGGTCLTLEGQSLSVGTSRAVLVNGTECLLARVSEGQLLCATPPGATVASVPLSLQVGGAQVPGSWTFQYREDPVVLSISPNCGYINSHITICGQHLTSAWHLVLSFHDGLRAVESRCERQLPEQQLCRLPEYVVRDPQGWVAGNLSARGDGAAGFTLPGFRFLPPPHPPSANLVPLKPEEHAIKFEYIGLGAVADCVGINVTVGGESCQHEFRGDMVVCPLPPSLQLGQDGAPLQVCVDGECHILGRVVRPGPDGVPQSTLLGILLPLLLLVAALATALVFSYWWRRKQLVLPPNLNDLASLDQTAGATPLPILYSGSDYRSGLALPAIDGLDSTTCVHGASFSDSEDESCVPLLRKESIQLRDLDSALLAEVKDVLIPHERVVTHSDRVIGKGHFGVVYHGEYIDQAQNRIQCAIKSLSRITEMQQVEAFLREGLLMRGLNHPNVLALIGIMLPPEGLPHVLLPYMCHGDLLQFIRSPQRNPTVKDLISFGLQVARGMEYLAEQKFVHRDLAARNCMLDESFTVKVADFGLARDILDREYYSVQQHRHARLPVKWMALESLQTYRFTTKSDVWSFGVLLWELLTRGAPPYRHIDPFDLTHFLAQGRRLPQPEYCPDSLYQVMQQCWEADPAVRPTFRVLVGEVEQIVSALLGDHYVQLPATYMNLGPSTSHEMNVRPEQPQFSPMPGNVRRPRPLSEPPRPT
Specifically, the compound was prepared to a concentration of 1 mM in 100% DMSO and was diluted 10 times in a stepwise manner through 3-fold dilution. The compound (2 ul) diluted in a stepwise manner was added to a 96-well-plate containing 48 ul of a 1× kinase reaction buffer (50 mM HEPES (pH 7.4), 0.01% Tween-20, 5 mM DTT, 0.5 mM Na3VO4, 2 mM EGTA, 10 mM MgCl2).
The RON protein was diluted to a concentration of 49.3 nM in a RON storage buffer (50 mM Tris-HCl (pH 7.5), 150 mM NaCl, 0.5 mM EDTA, 0.02% Triton X-100), and then diluted again to a concentration of 0.4 nM in a 1×kinase reaction buffer. As a substrate cocktail, a RON-specific substrate mixed solution (40 uM ULight-labeled Poly GT, 100 nM ATP) was prepared at a concentration 2 times the final reaction concentration.
(§1) Thereafter, a 384-well-plate was prepared, and 2.5 μl of each of the diluted compounds of Examples was added to a corresponding well of experimental group wells, and 2.5 μl of a 4% DMSO solution was dispensed into high control wells and low control wells.
(§2) Thereafter, 2.5 μL of 0.4 nM RON was dispensed into each of the high control wells and the experimental group wells, and 2.5 μL of the 1× kinase reaction buffer was added to the low control wells, and all the wells were centrifuged at room temperature for 40 seconds at 1,000 RPM, and then incubated at room temperature for 20-30 minutes. Then, 5 μL of the substrate cocktail (2×) was dispensed into each well, and all the wells were centrifuged at room temperature for 40 seconds at 1,000 RPM, and then incubated at room temperature for 60 minutes. Thereafter, 5 μL of 30 mM EDTA was added to each well to terminate the reaction, and all the wells were then incubated again at room temperature for 5 minutes. Thereafter, 5 μL of a 4×phosphotyrosine antibody (Perkin Elmer) containing europium was added to each well, and all the wells were then incubated at room temperature for 60 minutes. After the incubation, the 384-well-plate was read with the Vison plate reader. In this case, the excitation wavelength was 340 nm, and the emission wavelength was 620 nm and 665 nm. The IC50 value of each compound of Examples was derived using the GraphPd Prism7 program.

The target of another experiment is cMET (Homo sapiens, UniProt P08581). The experiment can be described thus: Inhibitory activity against MET (cMET), TR-FRET kinase assay. Format: biochemical. The conditions noted are these: TR-FRET enzyme assay. As for the experimental part:
In addition, in order to measure the enzyme activity inhibition for cMET, the evaluation was performed in the same manner as the enzyme activity inhibition measurement experiment for RON.
Specifically, the compound was prepared to a concentration of 1 mM in 100% DMSO and was diluted 10 times in a stepwise manner through 3-fold dilution. The compound (2 ul) diluted in a stepwise manner was added to a 96-well-plate containing 48 ul of a 1×kinase reaction buffer (50 mM HEPES (pH 7.4), 0.05% BSA, 0.005% Tween-20, 1 mM DTT, 0.5 mM MnCl2, 20 mM MgCl2).
The cMET protein was diluted to a concentration of 263 nM in a cMET storage buffer (50 mM Tris-HCl (pH 7.5), 150 mM NaCl, 0.05% Brij35, 1 mM DTT, 10% Glycerol), and then diluted again to a concentration of 2 nM in a 1×kinase reaction buffer. As a substrate cocktail, a MET-specific substrate mixed solution (5 uM TK peptide, 10 mM ATP) was prepared at a concentration 2 times the final reaction concentration.
as §1
as §2, with “of 2” for “of 0.4”, “nM cMET” for “nM RON”, “of 90” for “of 30”, “The […]” for “The IC50”
A general note: Time-resolved FRET reads energy transfer from a long-lived donor to a nearby acceptor.

cMET, sequence (P08581 25-1390): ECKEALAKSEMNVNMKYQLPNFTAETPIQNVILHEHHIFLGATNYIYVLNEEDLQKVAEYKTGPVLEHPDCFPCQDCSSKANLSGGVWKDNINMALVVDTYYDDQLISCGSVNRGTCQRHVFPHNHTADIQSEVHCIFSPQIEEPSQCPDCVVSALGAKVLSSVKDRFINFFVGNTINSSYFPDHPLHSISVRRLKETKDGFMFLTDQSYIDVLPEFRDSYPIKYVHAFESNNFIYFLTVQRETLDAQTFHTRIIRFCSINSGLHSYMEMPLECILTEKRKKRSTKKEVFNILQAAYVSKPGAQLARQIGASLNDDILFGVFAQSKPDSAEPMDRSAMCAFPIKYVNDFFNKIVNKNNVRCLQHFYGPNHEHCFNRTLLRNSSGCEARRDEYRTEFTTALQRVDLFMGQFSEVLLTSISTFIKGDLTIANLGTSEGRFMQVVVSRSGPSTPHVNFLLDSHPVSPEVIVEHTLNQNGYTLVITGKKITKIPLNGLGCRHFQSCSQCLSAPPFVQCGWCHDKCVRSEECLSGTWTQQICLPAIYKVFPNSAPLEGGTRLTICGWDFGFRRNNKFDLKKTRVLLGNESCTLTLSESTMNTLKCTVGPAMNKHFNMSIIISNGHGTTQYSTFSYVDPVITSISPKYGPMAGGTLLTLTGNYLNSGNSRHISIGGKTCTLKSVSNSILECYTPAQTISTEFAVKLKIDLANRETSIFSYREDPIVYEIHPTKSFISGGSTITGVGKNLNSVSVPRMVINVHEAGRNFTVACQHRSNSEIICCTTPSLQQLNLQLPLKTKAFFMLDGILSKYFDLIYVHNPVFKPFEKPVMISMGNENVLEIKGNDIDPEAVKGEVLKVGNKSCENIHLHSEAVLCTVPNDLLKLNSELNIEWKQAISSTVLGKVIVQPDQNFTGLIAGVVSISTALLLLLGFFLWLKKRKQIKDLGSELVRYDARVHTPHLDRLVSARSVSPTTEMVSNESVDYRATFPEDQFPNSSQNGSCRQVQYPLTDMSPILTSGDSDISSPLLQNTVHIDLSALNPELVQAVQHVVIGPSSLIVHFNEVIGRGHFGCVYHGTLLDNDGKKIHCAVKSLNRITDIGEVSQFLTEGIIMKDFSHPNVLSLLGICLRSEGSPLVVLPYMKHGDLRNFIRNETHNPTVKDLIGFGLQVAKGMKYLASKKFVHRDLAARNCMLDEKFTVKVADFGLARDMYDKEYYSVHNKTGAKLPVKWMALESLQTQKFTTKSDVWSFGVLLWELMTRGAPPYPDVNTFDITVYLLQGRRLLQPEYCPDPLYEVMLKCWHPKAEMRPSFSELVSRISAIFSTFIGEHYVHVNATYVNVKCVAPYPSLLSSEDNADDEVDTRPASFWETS

`Nc1nccc(Oc2ccc(NC(=O)c3cnn(-c4ncccc4F)c3C(F)(F)F)c(F)c2)c1Cl` [Example 32, N-(4-((2-amino-3-chloropyridin-4-yl)oxy)-2-fluorophenyl)-1-(3-fluoropyridin-2-yl)-5-(trifluoromethyl)-1H-pyrazole-4-carboxamide]: the 50% inhibitory concentration (IC50) at RON is < 50 nM; against cMET, 500 to 5000 nM.
Regarding `Nc1ncnc(Oc2ccc(NC(=O)c3cnn(-c4cncnc4)c3C(F)(F)F)cc2F)c1Cl` [Example 44, N-[4-(6-amino-5-chloro-pyrimidin-4-yl)oxy-3-fluoro-phenyl]-1-pyrimidin-5-yl-5-(trifluoromethyl)pyrazole-4-carboxamide], the results for the IC50 against RON and against cMET were 50 to 500 nM and > 5000 nM, respectively.
As to `CCc1c(C(=O)Nc2ccc(Oc3ccnc(N)c3I)c(F)c2)cnn1-c1ncccc1F` [Example 37, N-(4-((2-amino-3-iodopyridin-4-yl)oxy)-3-fluorophenyl)-5-ethyl-1-(3-fluoropyridin-2-yl)-1H-pyrazole-4-carboxamide], the IC50 against RON was < 50 nM; against cMET it was 500 to 5000 nM.
As to `Nc1nccc(Oc2ccc(NC(=O)c3cnn(-c4ccncc4)c3C(F)(F)F)cc2F)c1Cl` [Example 19, N-(4-((2-amino-3-chloropyridin-4-yl)oxy)-3-fluorophenyl)-1-(pyridin-4-yl)-5-(trifluoromethyl)-1H-pyrazole-4-carboxamide], the IC50 on RON lay within 50 to 500 nM; at cMET it was 500 to 5000 nM.
With `CCc1c(C(=O)Nc2ccc(Oc3ccnc(N)c3Cl)c(F)c2)cnn1-c1cncnc1` [Example 1, N-(4-((2-amino-3-chloropyridin-4-yl)oxy)-3-fluorophenyl)-5-ethyl-1-(pyrimidin-5-yl)-1H-pyrazole-4-carboxamide], the IC50 against RON was in the range of 50 to 500 nM; on cMET it was 500 to 5000 nM.
For `CCc1c(C(=O)Nc2ccc(Oc3ccnc(N)c3Cl)c(F)c2)cnn1-c1ccncc1` [Example 4, N-(4-((2-amino-3-chloropyridin-4-yl)oxy)-3-fluorophenyl)-5-ethyl-1-(pyridin-4-yl)-1H-pyrazole-4-carboxamide], the IC50 at RON is 500 to 5000 nM; against cMET, > 5000 nM.
For the compound `Cc1ccc(-n2ncc(C(=O)Nc3ccc(Oc4ccnc(N)c4Cl)c(F)c3)c2C(F)(F)F)nc1` [Example 16, N-(4-((2-amino-3-chloropyridin-4-yl)oxy)-3-fluorophenyl)-1-(5-methylpyridin-2-yl)-5-(trifluoromethyl)-1H-pyrazole-4-carboxamide], the values for the IC50 against RON and at cMET were 50 to 500 nM and > 5000 nM, respectively.
The corresponding values for `Nc1ncnc(Oc2ccc(NC(=O)c3cnn(-c4ccncn4)c3C(F)(F)F)cc2F)c1Cl` [Example 61, N-[4-(6-amino-5-chloro-pyrimidin-4-yl)oxy-3-fluoro-phenyl]-1-pyrimidin-4-yl-5-(trifluoromethyl)pyrazole-4-carboxamide] are 500 to 5000 nM and > 5000 nM.
With `Nc1nccc(Oc2ccc(NC(=O)c3cnn(-c4cccnn4)c3C(F)(F)F)cc2F)c1Cl` [Example 20, N-(4-((2-amino-3-chloropyridin-4-yl)oxy)-3-fluorophenyl)-1-(pyridazin-3-yl)-5-(trifluoromethyl)-1H-pyrazole-4-carboxamide], the IC50 at RON is < 50 nM; at cMET, 500 to 5000 nM.
The corresponding values for `CCc1cccnc1-n1ncc(C(=O)Nc2ccc(Oc3ncnc(N)c3Cl)c(F)c2)c1C(F)(F)F` [Example 58, N-[4-(6-amino-5-chloro-pyrimidin-4-yl)oxy-3-fluoro-phenyl]-1-(3-ethyl-2-pyridyl)-5-(trifluoromethyl)pyrazole-4-carboxamide] are 50 to 500 nM and > 5000 nM.
Turning to `Nc1ncnc(Oc2ccc(NC(=O)c3cnn(-c4ccncc4)c3C(F)(F)F)cc2F)c1Cl` [Example 57, N-[4-(6-amino-5-chloro-pyrimidin-4-yl)oxy-3-fluoro-phenyl]-1-(4-pyridyl)-5-(trifluoromethyl)pyrazole-4-carboxamide], the IC50 on RON is 500 to 5000 nM; against cMET, > 5000 nM.
The corresponding values for `Nc1nccc(Oc2ccc(NC(=O)c3cnn(-c4ccccn4)c3C(F)(F)F)cc2F)c1Cl` [Example 2, N-(4-((2-amino-3-chloropyridin-4-yl)oxy)-3-fluorophenyl)-1-(pyridin-2-yl)-5-(trifluoromethyl)-1H-pyrazole-4-carboxamide] are < 50 nM and 500 to 5000 nM.
Turning to `Nc1ncnc(Oc2ccc(NC(=O)c3cnn(-c4ncccc4F)c3C(F)(F)F)cc2F)c1Cl` [Example 45, N-[4-(6-amino-5-chloro-pyrimidin-4-yl)oxy-3-fluoro-phenyl]-1-(3-fluoro-2-pyridyl)-5-(trifluoromethyl)pyrazole-4-carboxamide], the IC50 is < 50 nM at RON and 500 to 5000 nM at cMET.
Turning to `Cc1c(C(=O)Nc2ccc(Oc3ccnc(N)c3Cl)c(F)c2)cnn1-c1cncnc1` [Example 7, N-(4-((2-amino-3-chloropyridin-4-yl)oxy)-3-fluorophenyl)-5-methyl-1-(pyrimidin-5-yl)-1H-pyrazole-4-carboxamide], the results for the IC50 on RON and against cMET were 50 to 500 nM and > 5000 nM, respectively.
Taken in the same sequence, the figures for `Cc1ccnc(-n2ncc(C(=O)Nc3ccc(Oc4ccnc(N)c4Cl)c(F)c3)c2C(F)(F)F)c1` [Example 12, N-(4-((2-amino-3-chloropyridin-4-yl)oxy)-3-fluorophenyl)-1-(4-methylpyridin-2-yl)-5-(trifluoromethyl)-1H-pyrazole-4-carboxamide] were 50 to 500 nM and 500 to 5000 nM.
With `Nc1nccc(Oc2ccc(NC(=O)c3cnn(-c4ncccn4)c3C(F)(F)F)cc2F)c1Cl` [Example 21, N-(4-((2-amino-3-chloropyridin-4-yl)oxy)-3-fluorophenyl)-1-(pyrimidin-2-yl)-5-(trifluoromethyl)-1H-pyrazole-4-carboxamide], the IC50 at RON was < 50 nM; at cMET, > 5000 nM.
Turning to `Nc1nccc(Oc2ccc(NC(=O)c3cnn(-c4ncc(F)cn4)c3C(F)(F)F)cc2F)c1Cl` [Example 26, N-(4-((2-amino-3-chloropyridin-4-yl)oxy)-3-fluorophenyl)-1-(5-fluoropyrimidin-2-yl)-5-(trifluoromethyl)-1H-pyrazole-4-carboxamide], the IC50 was 50 to 500 nM at RON and > 5000 nM against cMET.
Consider `Nc1ncnc(Oc2ccc(NC(=O)c3cnn(-c4cc(O)ccn4)c3C(F)(F)F)cc2F)c1Cl` [Example 64, N-[4-(6-amino-5-chloro-pyrimidin-4-yl)oxy-3-fluoro-phenyl]-1-(4-hydroxy-2-pyridyl)-5-(trifluoromethyl)pyrazole-4-carboxamide], for which the IC50 against RON is 50 to 500 nM; against cMET it was > 5000 nM.
As for `Cc1cccc(-n2ncc(C(=O)Nc3ccc(Oc4ccnc(N)c4Cl)c(F)c3)c2C(F)(F)F)n1` [Example 17, N-(4-((2-amino-3-chloropyridin-4-yl)oxy)-3-fluorophenyl)-1-(6-methylpyridin-2-yl)-5-(trifluoromethyl)-1H-pyrazole-4-carboxamide], the IC50 against RON was 50 to 500 nM; at cMET, 500 to 5000 nM.
